# Laboratory results taken from patent US10457654B2 (GENENTECH, INC., priority 2017, dated 2019).
# Structures can show the parent of a compound that is named as a salt.
# Experiments:
# hNav1.7 [1] = target: T1, hNav1.7 (Homo sapiens (Human), UniProt Q15858); assay: Patch voltage clamp electrophysiology assay (EP), Syncropatch 384PE, CHO cells expressing Nav1.7; assay type: cell-based; settings: holding potential -50 mV; […] compound incubation; read-out: EP_SP hNav1.7 (Ex. 243B) IC50
# How it was run: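 Automated whole-cell patch clamp on CHO cells stably expressing human Nav1.7, CsCl/EGTA internal and NMDG/80 mM Na+ external (pH 7.4). From −50 mV holding, −10 mV step, 20 ms recovery at −150 mV, then second −10 mV pulse where block is measured; inhibition after 7.5 min compound incubation.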
# Target sequence in this assay (Q15858 other isoform, or with tags, fused parts or gaps): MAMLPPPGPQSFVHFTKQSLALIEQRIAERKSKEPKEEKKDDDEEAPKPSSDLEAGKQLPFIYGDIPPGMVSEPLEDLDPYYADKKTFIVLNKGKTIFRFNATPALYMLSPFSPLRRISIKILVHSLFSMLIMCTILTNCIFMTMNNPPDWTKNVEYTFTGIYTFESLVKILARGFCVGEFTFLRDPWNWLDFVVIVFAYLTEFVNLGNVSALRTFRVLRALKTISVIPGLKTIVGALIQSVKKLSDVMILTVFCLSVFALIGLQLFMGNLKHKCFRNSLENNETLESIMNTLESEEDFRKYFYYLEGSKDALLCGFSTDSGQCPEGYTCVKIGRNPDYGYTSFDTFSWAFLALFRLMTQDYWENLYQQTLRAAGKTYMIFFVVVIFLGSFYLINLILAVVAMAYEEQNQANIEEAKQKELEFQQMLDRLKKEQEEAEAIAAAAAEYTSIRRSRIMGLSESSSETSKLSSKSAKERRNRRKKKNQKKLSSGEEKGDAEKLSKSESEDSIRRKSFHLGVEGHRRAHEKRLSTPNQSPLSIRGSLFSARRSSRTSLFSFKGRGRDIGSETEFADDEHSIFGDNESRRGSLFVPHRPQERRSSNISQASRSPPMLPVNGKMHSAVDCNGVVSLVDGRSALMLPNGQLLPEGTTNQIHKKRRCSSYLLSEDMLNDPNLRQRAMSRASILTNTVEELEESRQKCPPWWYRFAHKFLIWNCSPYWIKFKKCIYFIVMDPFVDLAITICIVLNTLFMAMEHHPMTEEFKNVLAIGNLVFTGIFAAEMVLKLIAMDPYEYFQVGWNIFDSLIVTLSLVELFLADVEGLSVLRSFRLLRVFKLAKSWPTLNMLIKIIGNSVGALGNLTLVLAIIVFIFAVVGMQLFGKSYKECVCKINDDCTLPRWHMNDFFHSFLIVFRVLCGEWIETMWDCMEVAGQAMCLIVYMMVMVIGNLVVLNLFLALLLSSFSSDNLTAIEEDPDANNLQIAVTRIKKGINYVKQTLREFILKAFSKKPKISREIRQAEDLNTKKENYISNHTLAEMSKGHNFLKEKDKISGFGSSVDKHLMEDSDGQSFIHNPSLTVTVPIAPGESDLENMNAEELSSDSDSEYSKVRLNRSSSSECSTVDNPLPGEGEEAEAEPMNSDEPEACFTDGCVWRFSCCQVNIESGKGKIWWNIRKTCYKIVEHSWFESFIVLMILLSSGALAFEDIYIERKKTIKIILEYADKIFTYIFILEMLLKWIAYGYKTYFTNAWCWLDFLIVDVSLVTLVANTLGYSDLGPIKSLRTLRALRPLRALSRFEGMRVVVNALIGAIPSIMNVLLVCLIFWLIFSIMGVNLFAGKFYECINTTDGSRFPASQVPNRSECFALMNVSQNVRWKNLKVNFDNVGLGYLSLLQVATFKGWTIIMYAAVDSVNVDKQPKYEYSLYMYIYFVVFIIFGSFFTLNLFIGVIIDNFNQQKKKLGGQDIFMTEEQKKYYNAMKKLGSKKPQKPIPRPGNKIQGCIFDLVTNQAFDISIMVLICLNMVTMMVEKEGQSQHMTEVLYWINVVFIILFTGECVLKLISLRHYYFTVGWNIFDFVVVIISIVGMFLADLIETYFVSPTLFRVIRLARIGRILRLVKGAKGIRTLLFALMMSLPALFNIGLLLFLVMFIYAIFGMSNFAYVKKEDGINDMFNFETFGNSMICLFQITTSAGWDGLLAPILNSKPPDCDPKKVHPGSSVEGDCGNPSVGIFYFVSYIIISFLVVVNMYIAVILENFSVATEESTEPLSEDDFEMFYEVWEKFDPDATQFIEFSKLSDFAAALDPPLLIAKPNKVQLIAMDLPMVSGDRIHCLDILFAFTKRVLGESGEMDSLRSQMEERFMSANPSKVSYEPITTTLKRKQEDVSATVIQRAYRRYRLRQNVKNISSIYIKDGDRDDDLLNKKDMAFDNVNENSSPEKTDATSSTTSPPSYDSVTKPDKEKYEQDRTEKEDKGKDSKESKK
# hNav1.7 [2] = target: T1, hNav1.7; assay: Tritiated compound binding to membranes from cells expressing hNav1.7 and the β1 subunit, modified protocol (LBA, Ex. 243B); settings: 300 pM [3H]compound, room temperature, read-out: Nav1.7 LBA (Ex. 243B) IC50
# Target sequence in this assay (Q15858 whole entry, looked up): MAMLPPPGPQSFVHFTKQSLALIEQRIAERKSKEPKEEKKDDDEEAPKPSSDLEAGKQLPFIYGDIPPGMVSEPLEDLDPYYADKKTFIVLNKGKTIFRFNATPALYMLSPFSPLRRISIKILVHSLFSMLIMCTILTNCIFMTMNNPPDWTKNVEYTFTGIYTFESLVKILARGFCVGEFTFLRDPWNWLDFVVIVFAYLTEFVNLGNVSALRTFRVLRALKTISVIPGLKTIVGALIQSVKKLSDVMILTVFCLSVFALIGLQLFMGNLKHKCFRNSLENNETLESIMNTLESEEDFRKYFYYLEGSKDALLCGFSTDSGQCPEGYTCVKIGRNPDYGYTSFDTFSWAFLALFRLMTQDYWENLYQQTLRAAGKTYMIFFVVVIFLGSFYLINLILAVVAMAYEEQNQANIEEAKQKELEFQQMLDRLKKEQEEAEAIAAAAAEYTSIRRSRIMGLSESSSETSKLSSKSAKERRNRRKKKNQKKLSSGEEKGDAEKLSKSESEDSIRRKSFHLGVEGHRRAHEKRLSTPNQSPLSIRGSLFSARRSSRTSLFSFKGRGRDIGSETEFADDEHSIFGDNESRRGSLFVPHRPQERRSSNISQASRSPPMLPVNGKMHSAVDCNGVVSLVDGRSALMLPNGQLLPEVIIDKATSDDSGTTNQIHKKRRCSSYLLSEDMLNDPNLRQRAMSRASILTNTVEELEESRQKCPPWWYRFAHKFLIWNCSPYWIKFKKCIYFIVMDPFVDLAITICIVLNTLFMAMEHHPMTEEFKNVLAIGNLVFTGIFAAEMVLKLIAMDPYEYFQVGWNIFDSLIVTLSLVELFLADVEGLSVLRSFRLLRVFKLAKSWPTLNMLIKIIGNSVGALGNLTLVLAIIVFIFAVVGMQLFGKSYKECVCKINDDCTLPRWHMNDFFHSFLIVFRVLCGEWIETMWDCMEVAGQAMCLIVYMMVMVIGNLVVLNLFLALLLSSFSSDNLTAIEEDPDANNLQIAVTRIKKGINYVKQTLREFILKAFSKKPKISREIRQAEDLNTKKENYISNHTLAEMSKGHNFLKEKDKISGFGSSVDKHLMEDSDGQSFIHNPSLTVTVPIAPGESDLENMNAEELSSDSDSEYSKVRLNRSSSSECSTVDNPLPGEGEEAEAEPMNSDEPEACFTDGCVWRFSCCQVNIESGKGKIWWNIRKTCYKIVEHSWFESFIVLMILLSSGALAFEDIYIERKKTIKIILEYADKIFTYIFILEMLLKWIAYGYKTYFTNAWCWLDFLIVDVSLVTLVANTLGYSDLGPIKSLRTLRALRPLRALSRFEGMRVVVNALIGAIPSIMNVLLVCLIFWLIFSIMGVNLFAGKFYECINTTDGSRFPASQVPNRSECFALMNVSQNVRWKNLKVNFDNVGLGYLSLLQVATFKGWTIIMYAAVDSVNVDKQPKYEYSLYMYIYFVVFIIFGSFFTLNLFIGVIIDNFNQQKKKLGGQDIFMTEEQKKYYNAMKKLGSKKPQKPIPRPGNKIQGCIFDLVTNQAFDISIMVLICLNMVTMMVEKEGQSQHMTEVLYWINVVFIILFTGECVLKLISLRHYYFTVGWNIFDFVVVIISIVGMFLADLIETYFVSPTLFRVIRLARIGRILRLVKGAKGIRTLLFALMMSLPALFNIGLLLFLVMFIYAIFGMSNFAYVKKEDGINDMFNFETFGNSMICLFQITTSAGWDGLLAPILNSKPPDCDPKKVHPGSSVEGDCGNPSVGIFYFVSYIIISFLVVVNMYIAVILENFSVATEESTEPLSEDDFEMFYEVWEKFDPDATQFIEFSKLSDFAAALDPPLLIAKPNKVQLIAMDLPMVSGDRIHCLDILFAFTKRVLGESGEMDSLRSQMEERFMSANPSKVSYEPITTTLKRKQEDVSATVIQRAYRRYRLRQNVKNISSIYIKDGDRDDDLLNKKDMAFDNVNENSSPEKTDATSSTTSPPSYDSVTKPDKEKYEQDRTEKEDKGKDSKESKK
# Target sequence in this assay (Q07699 whole entry partner, looked up): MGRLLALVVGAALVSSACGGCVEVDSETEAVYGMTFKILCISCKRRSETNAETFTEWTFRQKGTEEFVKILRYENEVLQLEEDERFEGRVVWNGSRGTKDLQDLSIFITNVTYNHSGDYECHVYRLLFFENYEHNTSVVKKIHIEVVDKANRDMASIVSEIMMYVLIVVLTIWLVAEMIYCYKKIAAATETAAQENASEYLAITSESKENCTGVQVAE
Structure (SMILES),IC50 (hNav1.7 [1]) [nM],IC50 (hNav1.7 [2]) [nM]
"CN1CC[C@@H]1C(=O)N(C)[C@H]1CCCC[C@@H]1Nc1cc(F)c(S(=O)(=O)Nc2nccs2)cc1Cl [Example 205, (R)—N-((1S,2S)-2-((2-Chloro-5-fluoro-4-(N-(thiazol-2-yl)sulfamoyl)phenyl)amino)cyclohexyl)-N,1-dimethylazetidine-2-carboxamide]",32.7,556
"O=S(=O)(Nc1ccncn1)c1cc(Cl)c(N[C@H]2CC[C@H](C(F)(F)F)C[C@@H]2N2CCCCC2)cc1F [Example 206, 5-chloro-2-fluoro-4-(((1S,2S,4S)-2-(piperidin-1-yl)-4-(trifluoromethyl)cyclohexyl)amino)-N-(pyrimidin-4-yl)benzenesulfonamide]",8.65,41.1
"Cc1nc(NS(=O)(=O)c2cc(Cl)c(N[C@H]3CCCC[C@@H]3N(C)C)cc2F)sc1F [Example 211, 5-Chloro-4-(((1S,2S)-2-(dimethylamino)cyclohexyl)amino)-2-fluoro-N-(5-fluoro-4-methylthiazol-2-yl)benzenesulfonamide formate]",120,1430
"O=S(=O)(Nc1nccs1)c1cc(Cl)c(N[C@H]2CCCC[C@@H]2N2CCC[C@](F)(CO)C2)cc1F [Example 212, 5-Chloro-2-fluoro-4-(((1S,2S)-2-((R)-3-fluoro-3-(hydroxymethyl)piperidin-1-yl)cyclohexyl)amino)-N-(thiazol-2-yl)benzenesulfonamide]",6.59,110
"O=S(=O)(Nc1nccs1)c1cc(Cl)c(N[C@H]2CCCC[C@@H]2N2CCC[C@@](F)(CO)C2)cc1F [Example 213, 5-Chloro-2-fluoro-4-(((1S,2S)-2-((S)-3-fluoro-3-(hydroxymethyl)piperidin-1-yl)cyclohexyl)amino)-N-(thiazol-2-yl)benzenesulfonamide]",13.9,218
"CN(C)[C@H]1C[C@H]2C[C@H]2C[C@@H]1Nc1cc(F)c(S(=O)(=O)Nc2nccs2)cc1Cl [Example 214, 5-Chloro-4-(((1S,3S,4S,6R)-4-(dimethylamino)bicyclo[4.1.0]heptan-3-yl)amino)-2-fluoro-N-(thiazol-2-yl)benzenesulfonamide]",2.09,53.1
"CN(C)[C@@H]1C[C@@H]2C[C@@H]2C[C@H]1Nc1cc(F)c(S(=O)(=O)Nc2nccs2)cc1Cl [Example 215, 5-Chloro-4-(((1R,3R,4R,6S)-4-(dimethylamino)bicyclo[4.1.0]heptan-3-yl)amino)-2-fluoro-N-(thiazol-2-yl)benzenesulfonamide]",286,2000
CN(C)[C@H]1C[C@@H]2C[C@@H]2C[C@@H]1Nc1cc(F)c(S(=O)(=O)Nc2nccs2)cc1Cl [Example 216],4.77,72.1
"CN(C)[C@@H]1C[C@H]2C[C@H]2C[C@H]1Nc1cc(F)c(S(=O)(=O)Nc2nccs2)cc1Cl [Example 217, 5-Chloro-4-(((1S,3R,4R,6R)-4-(dimethylamino)bicyclo[4.1.0]heptan-3-yl)amino)-2-fluoro-N-(thiazol-2-yl)benzenesulfonamide]",112,1190
"CN(C)[C@H]1C[C@H](c2cccc(C(F)(F)F)c2)CC[C@@H]1Nc1cc(F)c(S(=O)(=O)Nc2ccncn2)cc1Cl [Example 218, 5-chloro-4-(((1S,2S,4R)-2-(dimethylamino)-4-(3-(trifluoromethyl)phenyl)-cyclohexyl)amino)-2-fluoro-N-(pyrimidin-4-yl)benzenesulfonamide]",1.6,20.9
"CN(C)[C@H]1C[C@@H](c2cccc(C3CC3)c2)CC[C@@H]1Nc1cc(F)c(S(=O)(=O)Nc2ccncn2)cc1Cl [Example 219, 5-chloro-4-(((1S,2S,4S)-4-(3-cyclopropylphenyl)-2-(dimethyamino)cyclohexyl)amino)-2-fluoro-N-(pyrimidin-4-yl)benzenesulfonamide]",0.942,1.71
"O=S(=O)(Nc1ccncn1)c1cc(Cl)c(N[C@H]2CCCC[C@@H]2N2CCC[C@](F)(CO)C2)cc1F [Example 221, 5-Chloro-2-fluoro-4-(((1S,2S)-2-((R)-3-fluoro-3-(hydroxymethyl)piperidin-1-yl)cyclohexyl)amino)-N-(pyrimidin-4-yl)benzenesulfonamide]",62.9,298
"O=S(=O)(Nc1ccncn1)c1cc(Cl)c(N[C@H]2CCCC[C@@H]2N2CCC[C@@](F)(CO)C2)cc1F [Example 222, 5-Chloro-2-fluoro-4-(((1S,2S)-2-((S)-3-fluoro-3-(hydroxymethyl)piperidin-1-yl)cyclohexyl)amino)-N-(pyrimidin-4-yl)benzenesulfonamide]",124,464
"CCCc1cccc([C@H]2CC[C@H](Nc3cc(F)c(S(=O)(=O)Nc4ccncn4)cc3Cl)[C@@H](N(C)C)C2)c1 [Example 223, 5-Chloro-4-(((1S,2S,4S)-2-(dimethylamino)-4-(3-propylphenyl)cyclohexyl)amino)-2-fluoro-N-(pyrimidin-4-yl)benzenesulfonamide]",1.45,9.73
"CN(C)[C@H]1C[C@@H](c2ccc(C(F)(F)F)cc2)CC[C@@H]1Nc1cc(F)c(S(=O)(=O)Nc2ccncn2)cc1Cl [Example 224, 5-Chloro-4-(((1S,2S,4S)-2-(dimethylamino)-4-(4-(trifluoromethyl)phenyl)cyclohexyl)amino)-2-fluoro-N-(pyrimidin-4-yl)benzenesulfonamide]",2.36,8.33
"CN(C)[C@H]1C[C@@H](c2cccc(OC(F)(F)F)c2)CC[C@@H]1Nc1cc(F)c(S(=O)(=O)Nc2ccncn2)cc1Cl [Example 225, 5-Chloro-4-(((1S,2S,4S)-2-(dimethylamino)-4-(3-(trifluoromethoxy)phenyl)cyclohexyl)amino)-2-fluoro-N-(pyrimidin-4-yl)benzenesulfonamide]",0.651,0.643
"CN[C@H]1C[C@@H](c2cccc(C(F)(F)F)c2)CC[C@@H]1Nc1cc(F)c(S(=O)(=O)Nc2ccncn2)cc1Cl [Example 226, 5-Chloro-2-fluoro-4-(((1S,2S,4S)-2-(methylamino)-4-(3-(trifluoromethyl)phenyl)cyclohexyl)amino)-N-(pyrimidin-4-yl)benzenesulfonamide]",1.04,1.45
"CN(C)[C@H]1C[C@@H](c2cccc(C(F)(F)F)c2)CC[C@@H]1Nc1cc(F)c(S(=O)(=O)Nc2ccncn2)cc1Br [Example 227, 5-Bromo-4-(((1S,2S,4S)-2-(dimethylamino)-4-(3-(trifluoromethyl)phenyl)cyclohexyl)amino)-2-fluoro-N-(pyrimidin-4-yl)benzenesulfonamide]",1.19,0.69
"CN(C)[C@H]1C[C@@H](c2cccc(C(F)(F)F)c2)CC[C@@H]1Nc1cc(F)c(S(=O)(=O)Nc2ccon2)cc1Cl [Example 228, 5-chloro-4-(((1S,2S,4S)-2-(dimethylamino)-4-(3-(trifluoromethyl)phenyl)cyclohexyl)amino)-2-fluoro-N-(isoxazol-3-yl)benzenesulfonamide]",0.846,5.78
"CN(C)[C@H]1C[C@H](c2cccc(C(F)(F)F)c2)CC[C@@H]1Nc1cc(F)c(S(=O)(=O)Nc2ccon2)cc1Cl [Example 229, 5-chloro-4-(((1S,2S,4R)-2-(dimethylamino)-4-(3-(trifluoromethyl)phenyl)cyclohexyl)amino)-2-fluoro-N-(isoxazol-3-yl)benzenesulfonamide]",8.38,55
"CN(C)[C@H]1C[C@@H](c2cccc(C(F)(F)F)c2)CC[C@@H]1Nc1cc(F)c(S(=O)(=O)Nc2ccncn2)cc1C1CC1 [Example 230, 5-Cyclopropyl-4-(((1S,2S,4S)-2-(dimethylamino)-4-(3-(trifluormethyl)phenyl)cyclohexyl)amino)-2-fluoro-N-(pyrimidin-4-yl)benzenesulfonamide formate]",1.52,0.627
"CN(C)[C@H]1C[C@@H](c2cccc(Cl)c2)CC[C@@H]1Nc1cc(F)c(S(=O)(=O)Nc2ccncn2)cc1Cl [Example 231, 5-Chloro-4-(((1S,2S,4S)-4-(3-chlorophenyl)-2-(dimethylamino)cyclohexyl)amino)-2-fluoro-N-(pyrimidin-4-yl)benzenesulfonamide formate]",0.933,2.22
"CN(C)[C@H]1C[C@@H](c2ccccc2)CC[C@@H]1Nc1cc(F)c(S(=O)(=O)Nc2ccncn2)cc1Cl [Example 232, 5-chloro-4-(((1S,2S,4S)-2-(dimethyamino)-4-phenylcyclohexyl)amino)-2-fluoro-N-(pyrimidin-4-yl)benzenesulfonamide formate]",10.5,47.8
"CN(C)[C@H]1CN(c2cccc(C(F)(F)F)c2)CC[C@@H]1Nc1cc(F)c(S(=O)(=O)Nc2ccncn2)cc1Cl [Example 233, 5-Chloro-4-(((3S,4S)-3-(dimethylamino)-1-(3-(trifluoromethyl)phenyl)piperidin-4-yl)amino)-2-fluoro-N-(pyrimidin-4-yl)benzenesulfonamide]",1.71,9.82
"CN(C)[C@@H]1CN(c2cccc(C(F)(F)F)c2)CC[C@H]1Nc1cc(F)c(S(=O)(=O)Nc2ccncn2)cc1Cl [Example 234, 5-Chloro-4-(((3R,4R)-3-(dimethylamino)-1-(3-(trifluoromethyl)phenyl)piperidin-4-yl)amino)-2-fluoro-N-(pyrimidin-4-yl)benzenesulfonamide formate]",131,2000
"C[N+](C)([O-])[C@H]1C[C@@H](c2cccc(C(F)(F)F)c2)CC[C@@H]1Nc1cc(F)c(S(=O)(=O)Nc2ccncn2)cc1Cl [Example 235, (1S,2S,5S)-2-((2-Chloro-5-fluoro-4-(N-(pyrimidin-4-yl)sulfamoyl)phenyl)amino)-N,N-dimethyl-5-(3-(trifluoromethyl)phenyl)cyclohexanamine oxide]",8.14,11.8
